Results from US20120142730A1 (priority 2010, published 2012).

Tested on: subjects with relapsing remitting multiple sclerosis (RRMS)
Test: ALLEGRO phase III trial: patient-reported fatigue (MFIS), SF-36 and EQ5D
Format: in vivo, human
Protocol: Eligible subjects were equally randomized 1:1 into one of the following treatment arms: • 1. […] 21, 2007 (see, page 10, line 5 to page 11, line 3). • 2. Matching placebo for laquinimod arm: one capsule is administered once daily. The following assessments were performed at specified time points: • 1. Vital signs were measured at each study visit. • 2. A physical examination is performed at months −1 (screening), (baseline) 1, 3, 6, 12, 18 and 24 (termination/early discontinuation core study). In case of the 6 months extended study, additional examination was performed at month 30 (termination/early discontinuation of extended study). • 3. The following safety clinical laboratory tests were performed: • a. Complete blood count (CBC) with differential—at all scheduled visits. A reticulocyte count was added to the CBC at months 0 (baseline) and 24/30 (termination/early discontinuation). • b. Serum chemistry (including electrolytes, liver enzymes, direct and total bilirubin and pancreatic amylase and CPK), and urinalysis—at all scheduled visits. • c. A rapid urine β-hCG test was performed in women of child-bearing potential at baseline (month 0) and at each scheduled study visit thereafter (at site). • d. β-hCG in women of child-bearing potential was performed at all scheduled visits. • e. Starting after visit Month 3 a rapid urine β-hCG test was performed in women of child-bearing potential every 28 (±2) days. The subject was contacted by telephone within 72 hours after the test was scheduled to be performed and asked specific questions regarding the test. In case of suspected pregnancy (positive urine β-hCG test result), the caller made sure that the study drug has been discontinued and the subject was instructed to arrive at the site as soon as possible with all study drugs. • 4. Markers of inflammation (serum conventional C-reactive protein and fibrinogen)—at screening, baseline and all scheduled visits thereafter. • 5. During the first 3 months periodical phone calls were placed by the site personnel every two weeks. […] ECG was performed at months −1 (screening; additional recording, up to 30 minutes apart is performed if QTc is […] 450 msec), (baseline; three recordings, 15 minutes apart), 1, 2, 3, 6, 12, 18 and 24 (termination/early discontinuation). In case of the 6 months extended study, ECG is performed at month 30 (termination/early discontinuation of the extended study). • 7. Chest X-ray is performed at months −1 (screening), (if not performed within 7 months prior to the screening visit). • 8. Adverse Events (AEs) are monitored throughout the study. • 9. Concomitant medications are monitored throughout the study. • 10. Neurological evaluations, including Expanded Disability Status Scale (EDSS), 25 foot walk test/Ambulation Index (AI), Functional systems (FS) are performed at months −1 (screening), (baseline) and every 3 months during the study and the extended study period. • 11. MS functional Composite (MSFC) was assessed at months −1 (screening) (three practices for training purposes only), at month 0 (baseline), 6, 12, 18 and 24 (termination/early discontinuation). In case of the 6 months extended study, the last MSFC was performed at months 30 (termination/early discontinuation of the extended study). • 12. Subject-reported fatigue was assessed by the Modified Fatigue Impact Scale (MFIS) at months 0, 6, 12, 18, and 24 (termination/early discontinuation). In case of the 6 months extended study, additional MFIS was performed at month 30 (termination/early discontinuation of the extended study). • 13. The general health status was assessed by the EuroQoL (EQ5D) questionnaire at month 0 (baseline) and month 24 (termination/early discontinuation of the study). In case of the 6 months extended study, the last EuroQoL (EQ5D) was performed at month 30 (termination/early discontinuation of the extended study) instead of month 24. • 14. […]

[1] = 0.6 mg daily oral, listed as laquinimod

## CCN(C(=O)c1c(O)c2c(Cl)cccc2n(C)c1=O)c1ccccc1 [Laquinimod, laquinimod]
0.6 mg daily oral
  EQ-5D dimensions, health status at Month 24, words: 0.6 mg maintained their health status at Month 24 while those treated with placebo reported a
  MFIS (Modified Fatigue Impact Scale) adjusted mean score at 24 months: 31.9
0.6 mg daily oral vs placebo
  SF36 Mental component summary, treatment effect: 1.848
0.6 mg daily oral vs placebo, month 24, p=0.004
  MFIS treatment effect: −2.53
0.6 mg daily oral vs placebo, p 0.0267
  EQ5D, effect: −2.366
0.6 mg daily oral vs placebo, p 0.1354
  SF36 Physical component summary, effect: 0.65
0.6 mg daily oral vs placebo, listed as laquinimod
  SF36 Mental component summary, treatment effect: 1.68
0.6 mg daily oral, month 24
  EQ5D General Health Status by the Euroqol Questionnaire: 71.0
  SF36 - SFMHD Mental component summary: −0.47
  SF36 - SFPHD Physical component summary: −0.519
[1]
  MFIS (Modified Fatigue Impact Scale) adjusted mean score at 24 months: 31.9 (0.71)
  SF-36 PCS score over 24 months, words: The PCS score at Month 24 for those treated with laquinimod 0.6 mg remained stable while the
0.6 mg vs placebo at Month 24
  Functional disability due to fatigue (MFIS), words: average, associated with less functional disability due to fatigue than placebo at Month 24
At 12 months, p=0.02
  Change in adjusted mean MFIS psychosocial subscale score from baseline: significant improvement
At 24 months, p=0.02
  Change in adjusted mean MFIS physical subscale score from baseline: significant improvement
At 24 months, p=0.05
  Change in adjusted mean MFIS cognitive subscale score from baseline: significant improvement
Over 24 months vs placebo, p=0.010
  SF-36 PCS subscale role physical: showed improvement
Over 24 months vs placebo, p=0.016
  SF-36 PCS subscale physical functioning: showed improvement
Over 24 months, p=0.13
  SF-36 PCS difference from placebo, words: did not reach statistical significance
Vs placebo, Month 24, p 0.0113
  EQ-5D Anxiety or Depression, effect: 1.425
Vs placebo, Month 24, p 0.0181
  EQ-5D Mobility, effect: 1.497
Vs placebo, Month 24, p 0.0337
  EQ-5D Self care, effect: 2.251
Vs placebo, Month 24, p 0.4051
  EQ-5D Usual activities, effect: 1.129
Vs placebo, Month 24, p 0.8024
  EQ-5D Pain discomfort, effect: 1.036
